Assay results: PubChem BioAssay (NCI)
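Values below derive from 48-hour exposures of cells grown in 96-well plates, with endpoints linearly interpolated between the two concentrations bracketing the appropriate inhibition level. The concentration for full growth arrest is given as TGI.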 Where a SMILES comes first, the peptide text is derived from it. [ ]: non-standard residue; d: D form. ΔPro = O=C(O)[CH]1C=CCN1

Experiments:
Experiment in all cases: NCI-60 cell line screen, 48 h
A549 NSCLC = system: A549 NSCLC
EKVX NSCLC = system: EKVX NSCLC
OVCAR-3 ovarian = system: OVCAR-3 ovarian
U251 CNS = system: U251 CNS
NCI/ADR-RES ovarian = system: NCI/ADR-RES ovarian
HOP-62 NSCLC = system: HOP-62 NSCLC
K-562 leukemia = system: K-562 leukemia
TK-10 renal = system: TK-10 renal
HCT-116 colon = system: HCT-116 colon
SW-620 colon = system: SW-620 colon
UACC-257 melanoma = system: UACC-257 melanoma
DU-145 prostate = system: DU-145 prostate

SMILES | TGI (A549 NSCLC) [µM] | TGI (EKVX NSCLC) [µM] | TGI (OVCAR-3 ovarian) [µM] | TGI (U251 CNS) [µM] | TGI (NCI/ADR-RES ovarian) [µM] | TGI (HOP-62 NSCLC) [µM] | TGI (K-562 leukemia) [µM] | TGI (TK-10 renal) [µM] | TGI (HCT-116 colon) [µM] | TGI (SW-620 colon) [µM] | TGI (UACC-257 melanoma) [µM] | TGI (DU-145 prostate) [µM]
Cn1c(=O)c2ccccc2[n+]2c(-c3cccc([N+](=O)[O-])c3)csc12 | > 100 | > 100 | > 100 | > 100 | 83.5 | > 100 | > 100 | > 100 | > 100 | > 100 | > 100 | > 100
CN1CCC2(c3ccccc3)CC(=O)/C(=C/c3ccc(Cl)c(Cl)c3)C1C2 (stereo not given) | 10.9 | 9.63 | 9.59 | 3.47 | 11 | 12.3 | 7.28 | 11.7 | > 21 | > 21.6 | 23.3 | 11.9
CCc1n[nH]c(=O)n1CC | > 100 | > 100 | > 100 | > 100 | > 100 | > 100 | > 100 | > 100 | > 100 | > 100 | > 100 | > 100
CC(Br)CN1CCOCC1 (stereo not given) | > 100 | > 100 | > 100 | > 100 | > 100 | > 100 | > 100 | > 100 | > 100 | > 100 | > 100 | > 100
CC(=O)Nc1cc(Cl)cc(Cl)c1O | > 100 | > 100 | > 100 | > 100 | > 100 | > 100 | > 100 | > 100 | > 100 | > 100 | > 100 | > 100
C/C(=C\COP(=O)(O)OP(=O)(O)O)CCCCCCOCc1ccccc1 | > 100 | > 100 | > 100 | > 100 | > 100 | > 100 | > 100 | > 100 | > 100 | > 100 | > 100 | > 100
CC(=O)NS(=O)(=O)c1ccc(NCc2cccc3c(=O)c4ccc(Cl)cc4oc23)cc1 | > 100 | > 100 | > 93.3 | > 100 | > 80.7 | 96.8 | > 100 | > 100 | > 100 | > 100 | > 100 | > 100
CCOC(=O)c1ncn(CCc2ccc(Cl)cc2)c1C | > 100 | > 100 | > 100 | > 100 | > 100 | > 100 | > 100 | > 100 | > 100 | > 100 | > 100 | > 100
CSC1=NN(C(C)=O)C(C(OC(C)=O)C(OC(C)=O)C(OC(C)=O)C(COC(C)=O)OC(C)=O)S1 (stereo not given) | > 100 | > 100 | > 100 | > 100 | > 100 | > 100 | > 100 | > 100 | > 100 | > 100 | > 100 | > 100
Cn1nnc2c(C(N)=S)ncn2c1=O | > 100 | > 100 | > 100 | > 100 | > 100 | > 100 | > 100 | > 100 | > 100 | > 100 | > 100 | > 100
O=C(O)C1C=CCN1C(=O)C1C=CCN1C(=O)C1C=CCN1 (stereo not given) (H-[ΔPro]-[ΔPro]-[ΔPro]-OH; configuration not given here) | > 100 | > 100 | > 100 | > 100 | > 100 | > 100 | > 100 | > 100 | > 100 | > 100 | > 100 | > 100
O=C(OCc1ccccc1)C(Cc1ccc(OCc2ccccc2)cn1)NC(=O)C(F)(F)F (stereo not given) | > 100 | > 100 | > 100 | > 100 | > 100 | > 100 | > 100 | > 100 | > 100 | > 100 | > 100 | > 100
COc1ccc(-c2sc(Br)c3c2C(=O)C2OC(=O)NC32)cc1OC (stereo not given) | > 100 | > 100 | > 100 | > 100 | > 100 | > 100 | > 100 | > 100 | > 100 | > 100 | > 100 | > 100
CCN(CC)CCNc1ccc2ncn3c4ccc(OC)cc4c(=O)c1c23 | 9.71 | 29.2 | 24.2 | 5.31 | 16.1 | 20.3 | 22.7 | 29.2 | 13.5 | 11.1 | 28.3 | 20.7
COC(=O)/C=C/CCC#Cc1ccccc1C#CCC/C=C/C(=O)OC | > 100 | > 100 | 28.2 | > 100 | 66.2 | > 100 | 4.86 | > 100 | > 100 | > 100 | > 100 | > 100
O=C1Nc2ccc(Br)cc2/C1=N/S(=O)(=O)O | 78.9 | 85.7 | > 100 | > 100 | > 100 | > 100 | 42.6 | 57.1 | > 100 | > 100 | 31.4 | > 100
COC(=O)[C@@H]1C[C@@H](O)CN1C(=O)c1ccc([N+](=O)[O-])cc1[N+](=O)[O-] | > 100 | > 100 | > 100 | > 100 | > 100 | > 100 | > 100 | > 100 | > 100 | > 100 | > 100 | > 100
CCOC(=O)C1=C(C)N(c2ccc(Cl)cc2)C2(O)C=CC(=O)C3=C(O)c4ccccc4C(=O)C312 (stereo not given) | 21.8 | 21.4 | 5.84 | 15.6 | 12.6 | 18.9 | 18.1 | 8.03 | 11.6 | 12.7 | 42.7 | 21.1
COC(=O)[C@@H]1CN(C(=O)CCc2ccccc2)C(=O)N1 | > 100 | > 100 | > 100 | > 100 | > 100 | > 100 | > 100 | > 100 | > 100 | > 100 | > 100 | > 100
Cc1ccc(N2C(=O)C3c4[nH]c5ccc(C)cc5c4C4CCC(C(C)(C)C)CC4C3C2=O)cc1 (stereo not given) | 32.8 | 43.4 | 27.3 | 27.7 | 60.2 | 24.5 | 16.1 | 39.5 | 37.1 | 58.7 | > 100 | 62
COc1ccccc1-n1nnc2c(N)nc(N)nc21 | > 100 | > 100 | > 100 | > 100 | > 100 | > 100 | > 100 | > 100 | > 100 | > 100 | > 100 | > 100
CC(C)(C)OC(=O)N(O)[C@@H]1CC[C@H](n2cnc3c(N)ncnc32)C1 | > 100 | > 100 | > 100 | > 100 | > 100 | > 100 | > 100 | > 100 | > 100 | > 100 | > 100 | > 100
C=C(COCO)C(C)=O | > 64.7 | 46.9 | 26.6 | 47.2 | 51.5 | > 68.5 | > 27 | 26.9 | 26.7 | 11.1 | 31.1 | > 65.8
O=Cc1ccc2ccocc1-2 | > 100 | > 100 | > 100 | > 100 | > 100 | > 100 | > 100 | > 100 | > 100 | > 100 | > 100 | > 100
Clc1sc(Cl)c2c1[C@H](Cl)C[C@@H]2Cl | 86.2 | > 100 | 70.9 | 48.2 | 37.4 | > 100 | > 100 | 85.1 | 20.9 | 19.6 | 92.9 | 96.9
CNc1cc([N+](=O)[O-])ccc1C(=O)N1CCC[C@H]1CO | > 100 | > 100 | > 100 | > 100 | > 100 | > 100 | > 100 | > 100 | > 100 | > 100 | > 100 | > 100
CN(C)c1ccc(C=Nc2ccc(-c3nc4ccccc4s3)cc2)cc1 | > 100 | > 100 | 57.6 | > 100 | 92 | 82.8 | > 100 | 75.8 | > 100 | > 100 | 82.8 | > 100
CC(=O)OCC1OC(n2c(C)c(C(C)=O)c(-c3ccco3)c(C#N)c2=S)C(OC(C)=O)C(OC(C)=O)C1OC(C)=O (stereo not given) | > 100 | > 100 | > 100 | > 100 | > 100 | > 100 | > 100 | > 100 | > 100 | > 100 | > 100 | > 100
CCO/C(O)=C(/C(=N)N1CCOCC1)C(=O)NC(C)C | > 100 | > 100 | > 100 | > 100 | > 100 | > 100 | > 100 | > 100 | > 100 | > 100 | > 100 | > 100
Clc1cccc(-c2nc3cccc4c3n2Cc2ncccc2-4)c1 | > 100 | > 100 | > 100 | > 100 | > 100 | > 100 | > 100 | > 100 | > 100 | > 100 | > 100 | > 100
